Test results reported in US5589496A, “Fused benzeneoxyacetic acid derivatives which have PGI2 receptor agonist activity” (Ono Pharmaceutical Co., Ltd., priority 1991, dated 1996).

Experiments:
PGI2 receptor = target: T1, PGI2 receptor (Homo sapiens, UniProt P43119); assay: Inhibitory activity on binding of ^3 H-iloprost to PGI2 receptor on human blood platelet membrane fraction; details: 10 nM [^3H]-iloprost, human blood platelet membrane fraction (0.3 mg protein), 24° C., 30 min, pH 7.4
T1 construct: human blood platelet membrane fraction (0.3 mg protein) was added; from tissue; host or cells: human blood platelets (membrane fraction)
Protocol: i) Inhibitory activity on binding of ^3 H-iloprost to PGI2 receptor on human blood platelet membrane fraction Method 50 mM Tris-HCl buffer (pH 7.4) containing 15 mM MgCl2, 5 mM EDTA and 10 nM [^3 H]-iloprost were used as reaction medium. To 0.2 ml of the reaction medium, human blood platelet membrane fraction (0.3 mg protein) was added with or without a test compound. The mixture was incubated at 24° C. for 30 min. After incubation, 4 ml of ice-cold 10 mM Tris-HCl buffer (pH 7.4) was added to the reaction mixture, and filtered through Whatman GF/B glass fiber filter, and washed 4 times with 4 ml of ice-cold 10 mM Tris-HCl buffer (pH 7.4) to separate bound and free [^3 H]-iloprost. After washing, the filter was dried and radioactivity was counted. Non-specific binding was obtained by performing parallel binding experiments in the presence of 10 μM non-labelled iloprost. Specific binding was calculated by subtracting the non-specific binding from the total binding. The inhibitory effect of test compound was calculated from the following equation. The percentage of inhibition (%)=100-(B1 /B0 ×100) B1 : specific [^3 H]-iloprost binding in presence of test compound B0 : specific [^3 H]-iloprost binding in absence of test compound

[1] = system: human blood platelet aggregation; assay: Inhibitory effect on human blood platelet aggregation (ADP-induced, platelet-rich plasma); type: cell-based; details: human PRP (5×10^5 platelets/mm^3), test compound 1 min prior to ADP (4 μm)
Protocol: ii) Inhibitory effect on human blood platelet aggregation
Platelet-rich plasma (PRP) was prepared from human blood (5×10^5 platelets/mm^3), and a test compound was added to PRP 1 min prior to the addition of ADP (4 μm). The aggregation was monitored using a platelet aggregometer (NBS HEMA TRACER 601, Niko Bioscience, Japan).

T1 sequence (P43119 whole entry): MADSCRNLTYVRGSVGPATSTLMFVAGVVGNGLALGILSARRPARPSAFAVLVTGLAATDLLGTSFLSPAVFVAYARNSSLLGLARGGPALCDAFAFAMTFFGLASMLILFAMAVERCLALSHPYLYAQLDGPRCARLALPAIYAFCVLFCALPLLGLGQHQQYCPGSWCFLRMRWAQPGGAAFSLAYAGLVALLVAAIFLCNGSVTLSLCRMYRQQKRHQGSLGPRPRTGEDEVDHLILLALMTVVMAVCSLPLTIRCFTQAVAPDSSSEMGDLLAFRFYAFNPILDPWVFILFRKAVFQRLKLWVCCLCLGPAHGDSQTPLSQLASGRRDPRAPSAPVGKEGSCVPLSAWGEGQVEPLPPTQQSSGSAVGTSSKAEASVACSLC

Row | SMILES | IC50 (PGI2 receptor) [nM] | IC50 [1] [µM]
1 | O=C(O)COc1cccc2c1CCCC2CCc1nc(C(c2ccccc2)c2ccccc2)no1 (centres unmarked) [Example 8, [1-[2-(3-Diphenylmethyl-1,2,4-oxadiazol-5-yl)ethyl]-1,2,3,4-tetrahydronaphthalen-5-yloxy] acetic acid] | 2000 | 
2 | O=C(O)COc1cccc2c1CCC(Cn1cnc(-c3ccccc3)c1-c1ccccc1)C2 (centres unmarked) [2(a), [2-(4,5-Diphenylimidazol-1-yl)methyl-1,2,3,4-tetrahydronaphthalen-5-yloxy]acetic acid] | 2300 | 13
3 | O=C(O)COc1cccc2c1CCC(Cn1cc(C(c3ccccc3)c3cccnc3)cn1)=C2 (centres unmarked) [22(a), [2-(4-((3-Pyridyl)phenylmethyl)pyrazol-1-yl)methyl-3,4-dihydronaphthalen-5-yloxy] acetic acid] | 160 | 
4 | O=C(O)COc1cccc2c1CCC(CCOc1nc(-c3ccccc3)c(-c3ccccc3)n1-c1ccccc1)C2 (centres unmarked) [4(c), [2-(2-(1,4,5-Triphenylimidazol-2-yloxy)ethyl)-1,2,3,4-tetrahydronaphthalen-5-yloxy] acetic acid] | 8200 | 
5 | O=C(O)COc1cccc2c1CCC(Cn1cc(C(c3ccccc3)c3ccccc3)cn1)=C2 [Example 22, [2-(4-(Diphenylmethyl)pyrazol-1-yl)methyl-3,4-dihydronaphthalen-5-yloxy] acetic acid] | 18 | 0.093
6 | O=C(O)COc1cccc2c1CCC(Cn1cc(C(c3ccccc3)c3cccnc3)cn1)C2 (centres unmarked) [2(i), [2-(4-((3-pyridyl)phenylmethyl)pyrazol-1-yl)methyl-1,2,3,4-tetrahydronaphthalen-5-yloxy] acetic acid] | 210 | 0.15
7 | O=C(O)COc1cccc2c1CCC(Cc1c[nH]c(C(c3ccccc3)c3ccccc3)n1)C2 (centres unmarked) [Example 16, [2-(2-Diphenylmethylimidazol-4-yl)methyl-1,2,3,4-tetrahydronaphthalen-5-yloxy] acetic acid] | 6800 | 12
8 | O=C(O)COc1cccc2c1CCC(CSc1nc(-c3ccccc3)c(-c3ccccc3)[nH]1)C2 (centres unmarked) [2(c), [2-(4,5-Diphenylimidazol-2-ylthio)methyl-1,2,3,4-tetrahydronaphthalen-5-yloxy] acetic acid] | 3900 | 12
9 | O=C(O)COc1cccc2c1CCC(Cn1c(-c3ccccc3)c(-c3ccccc3)n(-c3ccccc3)c1=O)C2 (centres unmarked) [2(e), [2-(3,4,5-Triphenyl-2-oxo-2,3-dihydroimidazol-1-yl)methyl-1,2,3,4-tetrahydronaphthalen-5-yloxy] acetic acid] | 2600 | 15
10 | O=C(O)COc1cccc2c1CCCC2CCn1c(-c2ccccc2)c(-c2ccccc2)n(-c2ccccc2)c1=O (centres unmarked) [6(b), [1-(2-(1,4,5-Triphenyl-2-oxo-2,3-dihydroimidazol-3-yl)ethyl)-1,2,3,4-tetrahydronaphthalen-5-yloxy] acetic acid] | 4000 | 16
11 | O=C(O)COc1cccc2c1CCC(Cn1ccc(C(c3ccccc3)c3ccccc3)n1)C2 (centres unmarked) [2(h), [2-(3-Diphenylmethylpyrazol-1-yl)methyl-1,2,3,4-tetrahydronaphthalen-5-yloxy] acetic acid] | 360 | 
12 | O=C(O)COc1cccc2c1CCC(Cn1cnc(C(c3ccccc3)c3ccccc3)c1)C2 (centres unmarked) [2(g), [2-(4-Diphenylmethylimidazol-1-yl)methyl-1,2,3,4-tetrahydronaphthalen-5-yloxy] acetic acid] | 350 | 0.3
13 | O=C(O)COc1cccc2c1CCC(Cc1nc(C(c3ccccc3)c3ccccc3)no1)C2 (centres unmarked) [8(a), [2-(3-Diphenylmethyl-1,2,4-oxadiazol-5-yl)methyl-1,2,3,4-tetrahydronaphthalen-5-yloxy] acetic acid] | 260 | 1
14 | O=C(O)COc1cccc2c1CCCC2CCn1cc(C(c2ccccc2)c2ccccc2)cn1 (centres unmarked) [6(c), [1-(2-(4-Diphenylmethylpyrazol-1-yl)ethyl)-1,2,3,4-tetrahydronaphthalen-5-yloxy] acetic acid] | 58 | 
15 | O=C(O)COc1cccc2c1CCCC2CCn1cnc(-c2ccccc2)c1-c1ccccc1 (centres unmarked) [Example 6, [1-[2-(4,5-Diphenylimidazol-1-yl)ethyl]-1,2,3,4-tetrahydronaphthalen-5-yloxy] acetic acid] | 5000 | 
16 | O=C(O)COc1cccc2c1CCC(CCn1cc(C(c3ccccc3)c3ccccc3)cn1)C2 (centres unmarked) [4(f), [2-(2-(4-Diphenylmethylpyrazol-1-yl)ethyl)-1,2,3,4-tetrahydronaphthalen-5-yloxy] acetic acid] | 1400 | 
17 | O=C(O)COc1cccc2c1CCC(Cc1coc(C(c3ccccc3)c3ccccc3)n1)C2 (centres unmarked) [Example 12, [2-(2-Diphenylmethyloxazol-4-yl)methyl-1,2,3,4-tetrahydronaphthalen-5-yloxy] acetic acid] | 320 | 1
18 | CCc1oc(C(c2ccccc2)c2ccccc2)nc1CC1CCc2c(cccc2OCC(=O)O)C1 (centres unmarked) [Example 14, [2-(2-Diphenylmethyl-5-ethyloxazol-4-yl)methyl-1,2,3,4-tetrahydronaphthalen-5-yloxy] acetic acid] | 940 | 1.6
19 | O=C(O)COc1cccc2c1CCC(CCSc1nc(-c3ccccc3)c(-c3ccccc3)[nH]1)C2 (centres unmarked) [4(b), [2-(2-(4,5-Diphenylimidazol-2-ylthio)ethyl)-1,2,3,4-tetrahydronaphthalen-5-yloxy] acetic acid] | 5000 | 11
20 | O=C(O)COc1cccc2c1CCC(Cn1cc(C(c3ccccc3)c3ccccc3)cn1)C2 (centres unmarked) [Example 2, [2-(4-Diphenylmethylpyrazol-1-yl)methyl-1,2,3,4-tetrahydronaphthalen-5-yloxy]acetic acid] | 43 | 0.045
21 | O=C(O)COc1cccc2c1CCC(COc1nc(-c3ccccc3)c(-c3ccccc3)n1-c1ccccc1)C2 (centres unmarked) [2(d), [2-(1,4,5-Triphenylimidazol-2-yloxy)methyl-1,2,3,4-tetrahydronaphthalen-5-yloxy] acetic acid] | 6800 | 20
22 | O=C(O)COc1cccc2c1CCC(Cn1cc(C(c3ccccc3)n3ccnc3)cn1)C2 (centres unmarked) [Example 24, [2-(4-((1-Imidazolyl)phenylmethyl)pyrazol-1-yl)methyl-1,2,3,4-tetrahydronaphthalen-5-yloxy] acetic acid] | 8000 | 
23 | O=C(O)COc1cccc2c1CCC(Cc1nc(C(c3ccccc3)c3ccccc3)co1)C2 (centres unmarked) [Example 10, [2-(4-Diphenylmethyloxazol-2-yl)methyl-1,2,3,4-tetrahydronaphthalen-5-yloxy] acetic acid] | 1800 | 5.1
